From patent publication US4464467A, “Antitumor antibiotics produced by new streptomyces” (Bristol-Myers Company, priority 1982, dated 1984) come the findings set out here.

One data set concerns lymphatic leukemia P388. The data set can be described thus: Antitumor activity against leukemia P388, second experiment (Table 10). It is filed as in vivo, male BDF1 mice. As to conditions: for Survivors Day 5 / Survivors Day 22 / Average weight change / MST % T/C: QD 1→9; for antitumor activity against leukemia P388 (in words): second experiment, ip, once daily for 9 days, comparative. How it is done:
In this experiment lymphatic leukemia P388 was implanted intraperitoneally into male BDF1 mice at an inoculum size of 10^6 cells per mouse. Test compounds were dissolved in 0.9% saline containing 10% dimethylsulfoxide. Graded doses of test compounds were administered to mice intraperitoneally 24 hours after the tumor implantation, and the treatment was continued once daily for 9 days.
Tumor inoculum: 10^6 ascites cells implanted
Treatment: QD 1→9, i.p.
Evaluation: MST = median survival
Effect: % T/C = (MST treated/MST control) ×
Criteria: % T/C ≥125 considered as significant antitumor activity

In a further data set the test system is P388 mouse leukemia. The data set can be described thus: P388 mouse leukemia test (comparison of 2-hydroxy isomers). It is filed as in vivo. The conditions noted are these: β-hydroxy versus α-hydroxy isomers. The text has this:
The diastereoisomers of BBM-2040A and B of the present invention have been disclosed in Symposium Papers of the 24th Symposium on the Chemistry of Natural Products (Osaka, Japan, Oct. 13-16, 1981): Paper #72, pp. 552-559. Compounds 31b and 32b in this paper have the structures [drawing 2] and may be differentiated from BBM-2040A and B of the present invention in the configuration of the C-2 hydroxy group, i.e. BBM-2040A and B have the C-2 hydroxy group in the α-configuration while the corresponding 31b and 32b diastereoisomers have the β-configuration at the C-2 hydroxy group.

Data set [1] has as its system lymphocytic leukemia P388. The data set can be described thus: Antitumor activity against leukemia P388 in mice (Table 9). As to conditions: first experiment; ip, qd 1→9; comparative. It is filed as in vivo, mice (BDF1 strain). How it is done: The antitumor activity of BBM-2040A and B was determined in mice (BDF1 strain) against lymphocytic leukemia P388. Each mouse was inoculated intraperitoneally with 10^6 cells of tumor. Graded doses of test compounds were administered to mice intraperitoneally 24 hours after the tumor implantation. The treatments were given once daily for 9 days (qd 1→9 schedule). Neothramycin was comparatively tested as a reference compound.
*ratio of median survival time of test and control animals

Data set [2] deals with Streptococcus pyogenes, Micrococcus luteus, Micrococcus flavus and Mycobacterium strains. The data set can be described thus: Antibacterial activity, agar dilution. It is filed as cell-based. As to conditions: against Streptococcus pyogenes. How it is done: The minimum inhibitory concentration (MIC) of BBM-2040 was determined for a variety of gram-positive, gram-negative and acid-fast bacteria by the serial two-fold agar dilution method. Nutrient agar medium was used for gram-positive and gram-negative organisms and No. 1001 medium (3% glycerol, 0.3% sodium L-glutamate, 0.2% peptone, 0.31% Na2 HPO4, 0.1% KH2 PO4, 0.005% ammonium citrate, 0.001% MgSO4 and 1.5% agar) for acid-fast organisms.

Data set [3] can be described thus: Acute toxicity, single intraperitoneal administration. More on the design: species or system mice (ddY strain). As to conditions: mouse, in vivo, ip, ddY mice. How it is done: The intraperitoneal LD50 of neothramycin has been reported to be 20-30 mg/kg.
The mark [4] stands for this setting: in benzene, chloroform and n-hexane.
[5] abbreviates: in ethyl acetate, acetone and water.
[6] abbreviates: in methanol, ethanol, n-butanol and pyridine.

For the molecule `COc1cc2c(cc1O)N[C@H](OC)[C@@H]1C[C@@H](O)CN1C2=O` [2β-Hydroxy epimer of BBM-2040 A], the “Survivors Day 5” value with lymphatic leukemia P388 (0.03 mg/kg/day ip), in the data set on lymphatic leukemia P388 (0.1 mg/kg/day ip), in the data set with lymphatic leukemia P388 (0.3 mg/kg/day ip) and in the data set on lymphatic leukemia P388 (1 mg/kg/day ip) was 6/6 in each case. Moreover, the “Survivors Day 22” value with lymphatic leukemia P388 (0.03 mg/kg/day ip), with lymphatic leukemia P388 (0.1 mg/kg/day ip), with lymphatic leukemia P388 (0.3 mg/kg/day ip) and in the data set on lymphatic leukemia P388 (1 mg/kg/day ip) was 0/6 throughout.

As for `COc1cc2c(cc1O)N[C@H](OC)[C@@H]1C[C@@H](O)CN1C2=O` [31b, reference compound], the “antitumor activity in the P388 mouse leukemia test (in words)” value in the data set on P388 mouse leukemia is “essentially devoid of antitumor activity”.

`COc1cc2c(cc1O)N=C[C@@H]1C[C@@H](O)CN1C2=O` [32b, reference compound]: the “antitumor activity in the P388 mouse leukemia test (in words)” value in the data set with P388 mouse leukemia was “essentially devoid of antitumor activity”.

A word on the LD50: it is the dose at which mortality reaches 50%. A high value points to a less toxic substance. Turning to `COc1cc2c(cc1O)N[C@H](OC)[C@@H]1C[C@H](O)CN1C2=O` [BBM-2040A, (2S, 11aS)-5,10,11,11a-tetrahydro-2,8-dihydroxy-7,11-dimethoxy-5-oxo-1H-pyrrolo(2,1-c) (1,4)benzodiazepine], the solubility entry in the data set “Solubility” (setting [4]) was “practically insoluble”; in “Solubility” (setting [5]), “slightly soluble”; in “Solubility” (setting [6]), “readily soluble”. For the same molecule, the Average weight change entry is on record as “+1.5 g” in the data set on lymphatic leukemia P388 (0.1 mg/kg/day ip) and “+1.3 g” in the data set on lymphatic leukemia P388 (0.3 mg/kg/day ip). Also, the “MST % T/C” value in the data set on lymphatic leukemia P388 (0.1 mg/kg/day ip) stood at 100%; in the data set on lymphatic leukemia P388 (0.3 mg/kg/day ip), 117%; in the data set with lymphatic leukemia P388 (1 mg/kg/day ip), 133%; with lymphatic leukemia P388 (3 mg/kg/day ip), 142%; in the data set on lymphatic leukemia P388 (10 mg/kg/day ip) it was 163%. The “Survivors Day 5” value with lymphatic leukemia P388 (0.1 mg/kg/day ip), in the data set on lymphatic leukemia P388 (0.3 mg/kg/day ip), with lymphatic leukemia P388 (1 mg/kg/day ip), in the data set with lymphatic leukemia P388 (3 mg/kg/day ip) and in the data set on lymphatic leukemia P388 (10 mg/kg/day ip) was 6/6 in each case. Further, the “Survivors Day 22” value in the data set on lymphatic leukemia P388 (0.1 mg/kg/day ip) was 0/6; in the data set with lymphatic leukemia P388 (0.3 mg/kg/day ip) it was 0/6; in the data set with lymphatic leukemia P388 (1 mg/kg/day ip), 0/6; in the data set with lymphatic leukemia P388 (3 mg/kg/day ip), 0/6; in the data set on lymphatic leukemia P388 (10 mg/kg/day ip), 1/6. Besides, the “antitumor activity against leukemia P388 (in words)” value (with lymphatic leukemia P388; in data set [1]) was “similarly active” each time. In data set [2], the “antibacterial activity (in words)” value is “weak antibacterial activity”. For the same molecule, the “antitumor activity in the P388 mouse leukemia test (in words)” value in the data set on P388 mouse leukemia is listed as “marked activity”. Also, the median lethal dose (LD50) in data set [3] came to 34 mg/kg.

Take `COc1cc2c(cc1O)N=C[C@@H]1C[C@H](O)CN1C2=O` [BBM-2040B]: the solubility entry in “Solubility” (setting [4]) is “practically insoluble”; in “Solubility” (setting [5]), “slightly soluble”; in “Solubility” (setting [6]), “readily soluble”. Also, the stability in solutions entry in “Stability in solutions” is “relatively unstable”. Further, the “antitumor activity against leukemia P388 (in words)” value in data set [1] is on record as “somewhat less active than BBM-2040A”. Further, the “antibacterial activity (in words)” value in data set [2] was “weak antibacterial activity”. The “antitumor activity in the P388 mouse leukemia test (in words)” value in the data set on P388 mouse leukemia was “marked activity”. The molecule further returned an LD50 in data set [3] of 57 mg/kg.

Consider `COc1cc2c(cc1O)N=CC1CCC(O)N1C2=O` (stereo not drawn) [Neothramycin], for which the “MST % T/C” value with lymphatic leukemia P388 (0.1 mg/kg/day ip) amounted to 108%; in the data set on lymphatic leukemia P388 (0.3 mg/kg/day ip), 121%; in the data set with lymphatic leukemia P388 (1 mg/kg/day ip), 142%; in the data set on lymphatic leukemia P388 (3 mg/kg/day ip), 146%. Further, the “Survivors Day 5” value in the data set with lymphatic leukemia P388 (0.1 mg/kg/day ip), in the data set with lymphatic leukemia P388 (0.3 mg/kg/day ip), in the data set with lymphatic leukemia P388 (1 mg/kg/day ip) and in the data set with lymphatic leukemia P388 (3 mg/kg/day ip) was 6/6 in each case. Also, the “Survivors Day 22” value with lymphatic leukemia P388 (0.1 mg/kg/day ip), in the data set with lymphatic leukemia P388 (0.3 mg/kg/day ip), in the data set with lymphatic leukemia P388 (1 mg/kg/day ip) and in the data set on lymphatic leukemia P388 (3 mg/kg/day ip) was 0/6 each time. In addition, the “antitumor activity against leukemia P388 (in words)” value (with lymphatic leukemia P388; in data set [1]) was “similarly active” in each case.
